According to publication PMC12844998, “Bridging the Knowledge Gap in Harmaline’s Pharmacological Properties: A Focus on Thermodynamics and Kinetics” (Pharmaceutics, 2025):
Values after ≈ are worked out from the molar mass of the structure shown. Like-named read-outs stand apart in the source and are kept apart here.

Key:
[1] = Equilibrium solubility, shake-flask method; type: physicochemical; conditions: for solubility at 24 h: Hex, organic solvent or mixture, thermodynamic from solid, value given as S2×10^5, read-out: solubility S2∙105
Experimental: The equilibrium solubility of HML was measured by the shake-flask method over a wide temperature range of 293.15–313.15 K. Briefly, glass vials containing the respective solvent were charged with an excess of the drug. The vials were shaken at a predetermined temperature for 24 h—a duration previously established as sufficient to reach equilibrium between the solid and liquid phases. Following shaking, samples were equilibrated for ~5 h to prevent supersaturation and then centrifuged (10,000 rpm, 10 min; Biofuge pico, Thermo Electron LED GmbH, Osterode am Harz, Germany) at constant temperature. Concentrations were determined spectrophotometrically at 373 nm using a Cary-50 instrument (Varian, Palo Alto, CA, USA; software version 3.00 (339)) based on calibration curves. Data are presented as the mean ± standard deviation (or standard error) of at least three independent replicates. The error bars represent the standard deviation (SD), which ranged from 2% to 4% of the mean.

[2] = Kinetics of distribution in OctOH/pH 7.4 and IPM/pH 7.4 (1-5 h); type: physicochemical
Experimental: Distribution coefficients were measured at 1, 2, 3, 4, and 5 h in OctOH/pH 7.4 and IPM/pH 7.4 at 310.15 K to assess the kinetics of HML distribution.

[3] = Permeability in Franz diffusion cell, polydimethylsiloxane-polycarbonate membrane; type: in vitro ADME; conditions: pH 7.4, 310.15 K
Experimental: Permeability coefficients were measured in a vertical type Franz diffusion cell (PermeGear, Inc., Hellertown, PA, USA) maintained at 37 °C, with an effective diffusion area of 0.785 cm^2. The volumes of the donor (lower) and the acceptor (upper) compartments were 7 mL and 2 mL, respectively. Three artificial membranes were used in the study: Regenerated cellulose (RC): Standard Grade RC Dialysis Membrane with a molecular weight cut-off (MWCO) of 12–14 kDa and a flat width of 45 mm; PermeaPad barrier (PP): A commercially available barrier (PHABIOC, Fritz-Souchon-Str. 27, 32339 Espelkamp, Germany; www.innome.de), originally proposed by di Cagno et al.; Polydimethylsiloxane-polycarbonate membrane (PDS): A “Carbosil” membrane composed of 55% polydimethylsiloxane and 45% polycarbonate (PENTAMED, Moscow, Russia; https://medpolymer.ru/).
A solution of HML in pH 7.4 (7 mL) was placed into the donor chamber of a Franz cell. The acceptor compartment was filled with pure buffer pH 7.4 (1 mL). Over a period of 5 h, 0.5 mL samples were withdrawn from the acceptor compartment at 30 min intervals and replaced with an equal volume of fresh pH 7.4 buffer. The sample concentrations were determined by UV-Vis spectroscopy (Cary-50, Varian, Palo Alto, CA, USA; Software Version 3.00 (339)) or by HPLC (for experiments involving the polydimethylsiloxane-polycarbonate membrane). The cumulative amount of drug permeated through the membrane was plotted as a function of time. The flux was determined from the slope of the linear portion of each curve. The permeability coefficient was calculated using the following equation:(4) Papp=J/C0 where J is the flux, and C0 is the concentration of HML in the donor solution. A reverse dialysis setup was employed, where the lower chamber served as the donor compartment and was filled with the drug solution. Sink conditions were maintained in all experiments, meaning the drug concentration in the acceptor compartment never exceeded 10% of its concentration in the donor compartment at any time according the recommendations proposed in [18].
Samples from the acceptor compartment after permeation through the PDS membrane were analyzed by HPLC using a Shimadzu Prominence LC-20 AD system(Shimadzu Corporation, Kyoto, Japan) equipped with a PDA detector and a Luna® C-18 column (150 × 4.6 mm i.d., 5 μm particle size, 100 Å pore size). The column temperature was maintained at 40 °C. The mobile phase consisted of acetonitrile and water (containing 0.1% trifluoroacetic acid) in a 20:80 (v/v) ratio. An isocratic elution was performed at a flow rate of 1.0 mL·min^−1. The injection volume was 20 μL. The analytes were detected by UV at 373 nm, with a retention time of approximately 4.5 min. […]

Caco-2 monolayers = experiment: Literature permeability across Caco-2 monolayers; type: in vitro ADME; conditions: literature Caco-2 (ref 12) vs PP Papp
MDCK cells = experiment: Literature permeability across MDCK cells; type: in vitro ADME; conditions: literature MDCK (ref 12) vs PP Papp
[4] = Dissolution thermodynamics from van't Hoff plots of solubility; type: physicochemical
From the text: The calculation of the thermodynamic parameters for the solubility and distribution processes was based on component concentrations expressed in terms of mole fractions. The standard calculation procedure and the respective equations are presented in the Supplementary Materials (Section S4).

[5] = undefined temperature, cited from earlier work
[6] = pH 7.4, comparison with literature ref 19

SMILES: COc1ccc2c3c([nH]c2c1)C(C)=NCC3 [HML, Harmaline]
- log partition 1-octanol / buffer pH 7.4 (shake-flask; pH 7.4, 293.15): 0.973 log10
- log partition n-hexane / buffer pH 7.4 (shake-flask; pH 7.4, 293.15): −1.929 log10
- log partition 1-octanol / buffer pH 7.4 (shake-flask; pH 7.4, 298.15): 1.016 log10
- log partition n-hexane / buffer pH 7.4 (shake-flask; pH 7.4, 298.15): −1.899 log10
- log partition 1-octanol / buffer pH 7.4 (shake-flask; pH 7.4, 303.15): 1.066 log10
- log partition n-hexane / buffer pH 7.4 (shake-flask; pH 7.4, 303.15): −1.833 log10
- log partition 1-octanol / buffer pH 7.4 (shake-flask; pH 7.4, 308.15): 1.165 log10
- log partition n-hexane / buffer pH 7.4 (shake-flask; pH 7.4, 308.15): −1.765 log10
- log partition 1-octanol / buffer pH 7.4 (shake-flask; pH 7.4, 310.15): 1.290 log10
- log partition isopropyl myristate / buffer pH 7.4 (shake-flask; pH 7.4, 310.15): −0.602 log10
- log partition n-hexane / buffer pH 7.4 (shake-flask; pH 7.4, 310.15): −1.658 log10
- log partition 1-octanol / buffer pH 7.4 (shake-flask; pH 7.4, 313.15): 1.345 log10
- log partition n-hexane / buffer pH 7.4 (shake-flask; pH 7.4, 313.15): −1.605 log10
- solubility at pH 2.0 relative to pH 7.4 (higher) ([1]; 310.15 K): 2.2 fold
- solubility at 24 h ([1]; 293.15 K): 59.2 ± 1.3 µM (≈ 12.7 µg/mL)
- solubility at 24 h ([1]; 295.15 K): 65 ± 1.1 µM (≈ 13.9 µg/mL)
- solubility at 24 h ([1]; 298.15 K): 75.3 ± 1.2 µM (≈ 16.1 µg/mL)
- solubility at 24 h ([1]; 303.15 K): 93.2 ± 1.7 µM (≈ 20 µg/mL)
- solubility at 24 h ([1]; 308.15 K): 113.9 ± 0.7 µM (≈ 24.4 µg/mL)
- solubility at 24 h ([1]; 310.15 K): 130 ± 3.2 µM (≈ 27.9 µg/mL)
- solubility at 24 h ([1]; 313.15 K): 145 ± 4.1 µM (≈ 31 µg/mL)
- solubility at pH 7.4 relative to reserpine (more soluble) [1, 6]: 42 fold
- solubility at pH 7.4 relative to vincamine (more soluble) [1, 6]: 44 fold
- fold-change between saturation and 5 h distribution coefficients ([2]; IPM/pH 7.4, 310.15 K): 1.36 fold
- increase of distribution from 1 to 5 h ([2]; IPM/pH 7.4, 310.15 K): 1.3 fold
- fold-change between saturation and 5 h distribution coefficients ([2]; OctOH/pH 7.4, 310.15 K): 1.38 fold
- increase of distribution from 1 to 5 h ([2]; OctOH/pH 7.4, 310.15 K): 1.2 fold
- logPapp ([3]; PDS membrane): −6.78
- steady state flux J ([3]; PDS membrane, C0 2.62 × 10^−3 M): 4.31 × 10^−7 µmol∙cm^−2∙s^−1
- Papp at 5 h ([3]; PDS membrane, read-out: permeability coefficient Papp): 0.165 ×10⁻⁶ cm/s
- permeability coefficient for PDS, fold lower than for RC [3]: 299 fold
- maximum difference between Caco-2 model permeability and PermeaPad result (Caco-2 monolayers): ≤ 1.4 fold
- MDCK permeability coefficient, fold lower than PermeaPad result (MDCK cells): up to 2.3 fold
- Gibbs energy of solution ΔGsol0 ([4]; Hex, 298.15 K): 28.6 kJ/mol
- enthalpy share of the total free energy change of dissolution ([4]; Hex, 298.15 K): 84%
- entropy share of the total free energy change of dissolution ([4]; Hex, 298.15 K): 16%
- Gibbs energy of solution ΔGsol0 ([4]; OctOH, 298.15 K): 12.1 kJ/mol
- Gibbs energy of solution ΔGsol0 ([4]; pH 7.4, 298.15 K): 23.7 kJ/mol
- distribution coefficient n-heptane/aqueous (pH 7.4) ([5]; ref 19): 0.05
- distribution coefficient n-heptane/aqueous (pH 7.4) ([5]; ref 20): 0.11
